Data: ChEMBL document CHEMBL1156163, “(18)F Labeled benzimidazole derivatives as potential radiotracer for positron emission tomography (PET) tumor imaging” (Bioorg Med Chem, 2010)

What was measured:
[1] = Biodistribution in mouse S180 cells xenografted Kunming mouse tumor at 10 to 20 uCi, iv after 120 mins by gamma counting; assay type: ADME, organism-based, Neoplasm, CCRF S-180; conditions: in vivo, 2 h
[2] = Ratio of drug uptake in tumor to blood of mouse S180 cells xenografted Kunming mouse at 10 to 20 uCi, iv after 120 mins by gamma counting; assay type: ADME, organism-based, CCRF S-180; conditions: tumour, 2 h
[3] = Ratio of drug uptake in tumor to brain of mouse S180 cells xenografted Kunming mouse at 10 to 20 uCi, iv after 120 mins by gamma counting; assay type: ADME, organism-based, CCRF S-180; conditions: in vivo, 2 h
Pancreas [4] = test: Biodistribution in mouse S180 cells xenografted Kunming mouse pancreas at 10 to 20 uCi, iv after 5 mins by gamma counting; assay type: ADME, organism-based, CCRF S-180; conditions: in vivo
Lung [5] = test: Biodistribution in mouse S180 cells xenografted Kunming mouse lung at 10 to 20 uCi, iv after 5 mins by gamma counting; assay type: ADME, organism-based, CCRF S-180; conditions: in vivo
Kidney [6] = test: Biodistribution in mouse S180 cells xenografted Kunming mouse kidney at 10 to 20 uCi, iv after 5 mins by gamma counting; assay type: ADME, organism-based, CCRF S-180; conditions: in vivo
Muscle tissue [7] = test: Biodistribution in mouse S180 cells xenografted Kunming mouse muscle at 10 to 20 uCi, iv after 5 mins by gamma counting; assay type: ADME, organism-based, CCRF S-180; conditions: in vivo
Brain [8] = test: Biodistribution in mouse S180 cells xenografted Kunming mouse brain at 10 to 20 uCi, iv after 5 mins by gamma counting; assay type: ADME, organism-based, CCRF S-180; conditions: in vivo
[9] = Ratio of drug uptake in tumor to muscle of mouse S180 cells xenografted Kunming mouse at 10 to 20 uCi, iv after 5 mins by gamma counting; assay type: ADME, organism-based, CCRF S-180; conditions: in vivo
[10] = Ratio of drug uptake in tumor to brain of mouse S180 cells xenografted Kunming mouse at 10 to 20 uCi, iv after 5 mins by gamma counting; assay type: ADME, organism-based, CCRF S-180; conditions: in vivo
Heart [11] = test: Biodistribution in mouse S180 cells xenografted Kunming mouse heart at 10 to 20 uCi, iv after 15 mins by gamma counting; assay type: ADME, organism-based, CCRF S-180; conditions: in vivo, 0.25 h
Liver [12] = test: Biodistribution in mouse S180 cells xenografted Kunming mouse liver at 10 to 20 uCi, iv after 15 mins by gamma counting; assay type: ADME, organism-based, CCRF S-180; conditions: in vivo, 0.25 h
Pancreas [13] = test: Biodistribution in mouse S180 cells xenografted Kunming mouse pancreas at 10 to 20 uCi, iv after 15 mins by gamma counting; assay type: ADME, organism-based, CCRF S-180; conditions: in vivo, 0.25 h
Lung [14] = test: Biodistribution in mouse S180 cells xenografted Kunming mouse lung at 10 to 20 uCi, iv after 15 mins by gamma counting; assay type: ADME, organism-based, CCRF S-180; conditions: in vivo, 0.25 h
Kidney [15] = test: Biodistribution in mouse S180 cells xenografted Kunming mouse kidney at 10 to 20 uCi, iv after 15 mins by gamma counting; assay type: ADME, organism-based, CCRF S-180; conditions: in vivo, 0.25 h
Muscle tissue [16] = test: Biodistribution in mouse S180 cells xenografted Kunming mouse muscle at 10 to 20 uCi, iv after 15 mins by gamma counting; assay type: ADME, organism-based, CCRF S-180; conditions: in vivo, 0.25 h
Brain [17] = test: Biodistribution in mouse S180 cells xenografted Kunming mouse brain at 10 to 20 uCi, iv after 15 mins by gamma counting; assay type: ADME, organism-based, CCRF S-180; conditions: in vivo, 0.25 h
[18] = Biodistribution in mouse S180 cells xenografted Kunming mouse tumor at 10 to 20 uCi, iv after 15 mins by gamma counting; assay type: ADME, organism-based, Neoplasm, CCRF S-180; conditions: in vivo, 0.25 h
[19] = Ratio of drug uptake in tumor to blood of mouse S180 cells xenografted Kunming mouse at 10 to 20 uCi, iv after 15 mins by gamma counting; assay type: ADME, organism-based, CCRF S-180; conditions: tumour, 0.25 h
[20] = Ratio of drug uptake in tumor to muscle of mouse S180 cells xenografted Kunming mouse at 10 to 20 uCi, iv after 15 mins by gamma counting; assay type: ADME, organism-based, CCRF S-180; conditions: in vivo, 0.25 h
[21] = Ratio of drug uptake in tumor to brain of mouse S180 cells xenografted Kunming mouse at 10 to 20 uCi, iv after 15 mins by gamma counting; assay type: ADME, organism-based, CCRF S-180; conditions: in vivo, 0.25 h
Heart [22] = test: Biodistribution in mouse S180 cells xenografted Kunming mouse heart at 10 to 20 uCi, iv after 30 mins by gamma counting; assay type: ADME, organism-based, CCRF S-180; conditions: in vivo, 0.5 h
Liver [23] = test: Biodistribution in mouse S180 cells xenografted Kunming mouse liver at 10 to 20 uCi, iv after 30 mins by gamma counting; assay type: ADME, organism-based, CCRF S-180; conditions: in vivo, 0.5 h
Pancreas [24] = test: Biodistribution in mouse S180 cells xenografted Kunming mouse pancreas at 10 to 20 uCi, iv after 30 mins by gamma counting; assay type: ADME, organism-based, CCRF S-180; conditions: in vivo, 0.5 h
Lung [25] = test: Biodistribution in mouse S180 cells xenografted Kunming mouse lung at 10 to 20 uCi, iv after 30 mins by gamma counting; assay type: ADME, organism-based, CCRF S-180; conditions: in vivo, 0.5 h
Kidney [26] = test: Biodistribution in mouse S180 cells xenografted Kunming mouse kidney at 10 to 20 uCi, iv after 30 mins by gamma counting; assay type: ADME, organism-based, CCRF S-180; conditions: in vivo, 0.5 h
Blood [27] = test: Biodistribution in mouse S180 cells xenografted Kunming mouse blood at 10 to 20 uCi, iv after 30 mins by gamma counting; assay type: ADME, organism-based, CCRF S-180; conditions: in vivo, 0.5 h
Brain [28] = test: Biodistribution in mouse S180 cells xenografted Kunming mouse brain at 10 to 20 uCi, iv after 30 mins by gamma counting; assay type: ADME, organism-based, CCRF S-180; conditions: in vivo, 0.5 h
[29] = Biodistribution in mouse S180 cells xenografted Kunming mouse tumor at 10 to 20 uCi, iv after 30 mins by gamma counting; assay type: ADME, organism-based, Neoplasm, CCRF S-180; conditions: in vivo, 0.5 h
[30] = Ratio of drug uptake in tumor to brain of mouse S180 cells xenografted Kunming mouse at 10 to 20 uCi, iv after 30 mins by gamma counting; assay type: ADME, organism-based, CCRF S-180; conditions: in vivo, 0.5 h
Liver [31] = test: Biodistribution in mouse S180 cells xenografted Kunming mouse liver at 10 to 20 uCi, iv after 60 mins by gamma counting; assay type: ADME, organism-based, CCRF S-180; conditions: in vivo, 1 h
Pancreas [32] = test: Biodistribution in mouse S180 cells xenografted Kunming mouse pancreas at 10 to 20 uCi, iv after 60 mins by gamma counting; assay type: ADME, organism-based, CCRF S-180; conditions: in vivo, 1 h
Muscle tissue [33] = test: Biodistribution in mouse S180 cells xenografted Kunming mouse muscle at 10 to 20 uCi, iv after 60 mins by gamma counting; assay type: ADME, organism-based, CCRF S-180; conditions: in vivo, 1 h
Blood [34] = test: Biodistribution in mouse S180 cells xenografted Kunming mouse blood at 10 to 20 uCi, iv after 60 mins by gamma counting; assay type: ADME, organism-based, CCRF S-180; conditions: in vivo, 1 h
Brain [35] = test: Biodistribution in mouse S180 cells xenografted Kunming mouse brain at 10 to 20 uCi, iv after 60 mins by gamma counting; assay type: ADME, organism-based, CCRF S-180; conditions: in vivo, 1 h
[36] = Biodistribution in mouse S180 cells xenografted Kunming mouse tumor at 10 to 20 uCi, iv after 60 mins by gamma counting; assay type: ADME, organism-based, Neoplasm, CCRF S-180; conditions: in vivo, 1 h
[37] = Ratio of drug uptake in tumor to blood of mouse S180 cells xenografted Kunming mouse at 10 to 20 uCi, iv after 60 mins by gamma counting; assay type: ADME, organism-based, CCRF S-180; conditions: tumour, 1 h
[38] = Ratio of drug uptake in tumor to muscle of mouse S180 cells xenografted Kunming mouse at 10 to 20 uCi, iv after 60 mins by gamma counting; assay type: ADME, organism-based, CCRF S-180; conditions: in vivo, 1 h
Liver [39] = test: Biodistribution in mouse S180 cells xenografted Kunming mouse liver at 10 to 20 uCi, iv after 120 mins by gamma counting; assay type: ADME, organism-based, CCRF S-180; conditions: in vivo, 2 h
Kidney [40] = test: Biodistribution in mouse S180 cells xenografted Kunming mouse kidney at 10 to 20 uCi, iv after 120 mins by gamma counting; assay type: ADME, organism-based, CCRF S-180; conditions: in vivo, 2 h
Muscle tissue [41] = test: Biodistribution in mouse S180 cells xenografted Kunming mouse muscle at 10 to 20 uCi, iv after 120 mins by gamma counting; assay type: ADME, organism-based, CCRF S-180; conditions: in vivo, 2 h
Blood [42] = test: Biodistribution in mouse S180 cells xenografted Kunming mouse blood at 10 to 20 uCi, iv after 120 mins by gamma counting; assay type: ADME, organism-based, CCRF S-180; conditions: in vivo, 2 h
Brain [43] = test: Biodistribution in mouse S180 cells xenografted Kunming mouse brain at 10 to 20 uCi, iv after 120 mins by gamma counting; assay type: ADME, organism-based, CCRF S-180; conditions: in vivo, 2 h

OC[C@H]1O[C@@H](O)[C@H]([18F])[C@@H](O)[C@@H]1O [FLUDEOXYGLUCOSE-F18]
Drug uptake [1]: 1.7 % ID/g | Ratio [2]: 15.85 | Ratio [3]: 1.33 | Drug uptake (Pancreas [4]): 1.31 % ID/g | Drug uptake (Lung [5]): 1.52 % ID/g | Drug uptake (Kidney [6]): 2.16 % ID/g | Drug uptake (Muscle tissue [7]): 1.56 % ID/g | Drug uptake (Brain [8]): 2.4 % ID/g | Ratio [9]: 0.81 | Ratio [10]: 0.53 | Drug uptake (Heart [11]): 2.5 % ID/g | Drug uptake (Liver [12]): 0.47 % ID/g | Drug uptake (Pancreas [13]): 0.95 % ID/g | Drug uptake (Lung [14]): 0.77 % ID/g | Drug uptake (Kidney [15]): 1.04 % ID/g | Drug uptake (Muscle tissue [16]): 1.14 % ID/g | Drug uptake (Brain [17]): 2.63 % ID/g | Drug uptake [18]: 1.56 % ID/g | Ratio [19]: 3.42 | Ratio [20]: 1.37 | Ratio [21]: 0.59 | Drug uptake (Heart [22]): 2.69 % ID/g | Drug uptake (Liver [23]): 0.23 % ID/g | Drug uptake (Pancreas [24]): 0.9 % ID/g | Drug uptake (Lung [25]): 0.64 % ID/g | Drug uptake (Kidney [26]): 0.61 % ID/g | Drug uptake (Blood [27]): 0.16 % ID/g | Drug uptake (Brain [28]): 3.07 % ID/g | Drug uptake [29]: 1.86 % ID/g | Ratio [30]: 0.61 | Drug uptake (Liver [31]): 0.22 % ID/g | Drug uptake (Pancreas [32]): 0.83 % ID/g | Drug uptake (Muscle tissue [33]): 0.97 % ID/g | Drug uptake (Blood [34]): 0.11 % ID/g | Drug uptake (Brain [35]): 2.11 % ID/g | Drug uptake [36]: 2.16 % ID/g | Ratio [37]: 19.47 | Ratio [38]: 2.23 | Drug uptake (Liver [39]): 0.2 % ID/g | Drug uptake (Kidney [40]): 0.25 % ID/g | Drug uptake (Muscle tissue [41]): 0.78 % ID/g | Drug uptake (Blood [42]): 0.11 % ID/g | Drug uptake (Brain [43]): 1.28 % ID/g
